Assay [1] addresses T1, human kidney-type glutaminase (hKGA124–669) (Homo sapiens, UniProt O94925).
T1 sequence (O94925 124-669): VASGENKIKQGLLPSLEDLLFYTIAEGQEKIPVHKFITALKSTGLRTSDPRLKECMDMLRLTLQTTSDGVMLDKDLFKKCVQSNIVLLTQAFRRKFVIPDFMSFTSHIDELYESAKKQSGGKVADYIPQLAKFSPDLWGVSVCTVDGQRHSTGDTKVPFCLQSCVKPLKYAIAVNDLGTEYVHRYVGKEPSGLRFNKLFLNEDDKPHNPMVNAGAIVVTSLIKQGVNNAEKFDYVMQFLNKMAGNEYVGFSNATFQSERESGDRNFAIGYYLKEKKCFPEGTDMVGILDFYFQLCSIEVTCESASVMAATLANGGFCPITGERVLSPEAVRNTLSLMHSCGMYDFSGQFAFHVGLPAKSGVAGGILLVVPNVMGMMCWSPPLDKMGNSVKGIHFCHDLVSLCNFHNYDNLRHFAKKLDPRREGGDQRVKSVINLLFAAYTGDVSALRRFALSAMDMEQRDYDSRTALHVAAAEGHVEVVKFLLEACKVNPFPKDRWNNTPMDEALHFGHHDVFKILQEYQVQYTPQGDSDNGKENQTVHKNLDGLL
In kind it is biochemical.

For assay [2], the system named is GLS (both KGA and GAC isoenzymes) over GLS2. The settings on record: cited from earlier work.
Assay [3] deals with MDA-MB-231. In words: Cell growth / viability, CellTiter-Glo, MDA-MB-231. In kind it is cell-based, human. The settings on record: 72 h of incubation. (In ATP-based viability assays light output follows the ATP content of the culture.)
The test system of assay [4] is HCC1806. In words: Cell growth / viability, CellTiter-Glo, HCC1806. As to conditions: 72 h of incubation. In kind it is cell-based, human.

Structures are written as SMILES. Entries after “also recorded” stand apart in the source; their conditions may differ.

As to `O=C(Cc1ccc(O)cc1)Nc1nnc(CCCCc2nnc(NC(=O)Cc3ccc(O)cc3)s2)s1` [2q], the “higher GLS inhibitory potency compared with 2p” value in assay [1] is reported as 10 fold.

As to `[N-]=[N+]=CC(=O)CC[C@H](N)C(=O)O` [DON, 6-Diazo-5-oxo-L-norleucine], in assay [2], the “selectivity GLS versus GLS2” value was “inhibits both GLS and GLS2”.

As to `O=C(Cc1ccccc1)Nc1nnc(CCCCc2nnc(NC(=O)Cc3ccc(O)cc3)s2)s1` [compound 2m, 4-hydroxy-N-[5-[4-[5-[(2-phenylacetyl)amino]-1,3,4-thiadiazol-2-yl]butyl]-1,3,4-thiadiazol-2-yl]-benzeneacetamide], the “increase in GLS inhibitory potency from the corresponding acetoxy derivative 2j” value in assay [1] is listed as ~8 fold. In assay [1] (Figure 2), the “time dependency of GLS inhibitory potency (effect of preincubation time)” value is on record as “no time-dependent increase in GLS inhibitory potency; also recorded: did not exhibit time-dependency”. The “antiproliferative effect compared with BPTES and CB-839 in MDA-MB-231” value in assay [3] is on record as “least effective”. For the same compound, the “growth inhibition of MDA-MB-231” value in assay [3] (1000 nM, P < 0.05 compared to controls) is on record as “statistically significant growth inhibition”. Besides, the “antiproliferative effect compared with BPTES and CB-839 in HCC1806” value in assay [4] is reported as “least effective”.

The values above are taken from article PMC4868099 (ACS Medicinal Chemistry Letters, 2016).
